Test system: P2R (P2-purinoceptor) in human osteosarcoma HOS cells
Test: Inhibition of ATP-induced P2R calcium signals (Fura-2 fluorescence) in HOS cells
Type: cell-based
Conditions: erinacine S 5, 10 and 15 μg/ml (FIG. 7B)
Protocol: Cells were filled with a fluorescent dye-based calcium indicator, “Fura-2, AM cell permeant” (ThermoFisher Scientific, Waltham, Mass., U.S.A.), and the variation of the fluorescence level at an emission wavelength of 505 nm was determined at two excitation wavelengths of 340 nm and 380 nm using a fluorescence spectrometer (SPEX® 1681, Spec Industries, Inc., New Jersey, U.S.A.). During the experiment, ATP was added to cells to stimulate the P2R expression, and the variation of the fluorescence level was observed. Finally, 1 wt. % digitonin was added to enable the cells to become transparent, and the maximum fluorescence ratio (Rmax) was obtained at a concentration of 2 mM Ca^2+. Ethyleneglycol bis(2-aminoethylether)tetraacetic acid (EGTA) then was added to chelate with the calcium ions to obtain a minimum fluorescence ratio (Rmin). The dissociation coefficient (Kd) of fura-2 to Ca^2+ is 225 nM. The intracellular calcium-ion concentration was calculated using formulas (Grynkiewicz et al., J. Biol. Chem. 1985. 260(6):3440-3450). […]
Comparing the P2R-correlated calcium signals in three cell lines stimulated with ATP, the variation of the calcium-ion concentration in human osteosarcoma HOS cells was the most significant, and thus the influence of the agent on P2R can clearly be determined. […]

## CC(C)C1=C2C3CCC4=C(O)C(=O)C5(O)COC6OC(C4C65O)C3(C)CCC2(C)CC1 (stereo not shown) [erinacine S]
  inhibition effect on the variation of the intracellular calcium-ion concentration induced by ATP: more significant in a dosage-dependent manner
